Reference: patent publication US20020137929A1, “1 - (3-heterocyclylphenyl) isothiourea, -isourea, -guanidine and -amidine herbicidal agents” (Intellectual Property Department, BASF Aktiengesellschaft, priority 1998, published 2002)

Assays:
[1] = system: CASOB (Sicklepod); test: Postemergence herbicidal evaluation; assay type: in vivo, Cassia obtusifolia
Summary of the method: (§1)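 Seedlings grown about two weeks were sprayed at 40 psi with compound dispersed in 50/50 acetone/water plus 0.5% TWEEN 20, at about 0.0156 to 0.500 kg/ha. Plants were kept in the greenhouse and scored 4–5 weeks later on a 0–9 visual scale against untreated controls.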

[2] = system: CHEAL (Lambsquarters, Common); test: Postemergence herbicidal evaluation; assay type: in vivo, Chenopodium album
Summary of the method: as §1

[3] = system: GALAP (Galium); test: Postemergence herbicidal evaluation; assay type: in vivo, Galium aparine
Summary of the method: as §1

[4] = system: ORYSAT (Rice, Tebonnet); test: Postemergence herbicidal evaluation; assay type: in vivo, Oryza sativa, (L.) Tebonnet
Summary of the method: as §1

[5] = system: ZEAMX (Corn, Field); test: Postemergence herbicidal evaluation; assay type: in vivo, Zea mays
Summary of the method: as §1

[6] = system: AMBEL (Ragweed, Common); test: Preemergence herbicidal evaluation; assay type: in vivo, Ambrosia artemisifolia; conditions: rated 4-5 weeks after treatment
Summary of the method: (§2)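 Sown cups got a single aqueous acetone spray of test compound (roughly 0.0156–0.500 kg/ha) before seedlings emerged. Evaluation, 4–5 weeks on, used a 0–9 visual scale covering plant stand, vigor, size, malformation, chlorosis and general appearance compared with controls.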

[7] = system: SETVI (Foxtail, Green); test: Preemergence herbicidal evaluation; assay type: in vivo, Setaria viridis; conditions: rated 4-5 weeks after treatment
Summary of the method: as §2

[8] = system: GLXMAW (Soybean, Williams); test: Preemergence herbicidal evaluation; assay type: in vivo, Glycine max, (L.) Merr. cv Williams; conditions: rated 4-5 weeks after treatment
Summary of the method: as §2

[9] = system: ORYSAT (Rice, Tebonnet); test: Preemergence herbicidal evaluation; assay type: in vivo, Oryza sativa, (L.) Tebonnet; conditions: rated 4-5 weeks after treatment
Summary of the method: as §2

[10] = system: CYPSE (Flatsedge); test: Preemergence weed control under flooded paddy conditions; assay type: in vivo, Cyperus serotinus; conditions: rated 3-4 weeks after treatment
Summary of the method: (§3)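 Visual injury scored 0-9 against control three to four weeks post-treatment, greenhouse-grown. Application: acetone/water (50/50) solutions dosed directly into flood water (1.5-3 cm over silt loam, planted top 0.5 cm), roughly 0.0313 to 0.500 kg/ha active ingredient.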

[11] = system: MOOVA (Monochoria); test: as above; assay type: in vivo, Monochoria vaginalis; conditions: rated 3-4 weeks after treatment
Summary of the method: as §3

[12] = system: CYPIR (Rice Flatsedge); test: Postemergence weed control under flooded paddy conditions; assay type: in vivo, Cyperus iria; conditions: postemergence weeds, 3-4 weeks after treatment
Summary of the method: (§4)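 Injury ratings (0–9 scale covering stand, vigor, malformation, size, chlorosis and overall appearance versus control) were made three to four weeks after treatment. Test material, about 0.0313 to 0.500 kg/ha a.i. in 50/50 v/v aqueous/acetone, was added to flood water 1.5 to 3 cm deep over 3 to 5 cm weeds and 1.5 to 2.5 leaf rice.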

[13] = system: CYPSE (Flatsedge); test: as above; assay type: in vivo, Cyperus serotinus; conditions: postemergence weeds, 3-4 weeks after treatment
Summary of the method: as §4

[14] = system: SAGPY (Arrowhead (Pygmaea)); test: as above; assay type: in vivo, Sagittaria pygmaea; conditions: postemergence weeds, 3-4 weeks after treatment
Summary of the method: as §4

Structure (SMILES): CCOC(=O)CN1C(=O)C(CCO)S/C1=N/c1cc(-n2c(=O)cc(C(F)(F)F)n(C)c2=O)c(F)cc1Cl (stereo not shown) [Compound 49, Ethyl 2-{{2-chloro-5-[3,6-dihydro-3-methyl-2,6-dioxo-4-(trifluoromethyl)-1(2H)-pyrimidinyl]-4-fluorophenyl}imino}-5-(hydroxyethyl)-4-oxo-3-thiazolidineacetate]
- Postemergence herbicidal rating CASOB ([1]; Rate 0.0313 kg/ha): 3.0
- Postemergence herbicidal rating CASOB ([1]; Rate 0.0625 kg/ha): 3.0
- Postemergence herbicidal rating CASOB ([1]; rate 0.0156 kg/ha): 2.0
- Postemergence herbicidal rating CHEAL ([2]; Rate 0.0313 kg/ha): 9.0
- Postemergence herbicidal rating CHEAL ([2]; Rate 0.0625 kg/ha): 9.0
- Postemergence herbicidal rating CHEAL ([2]; rate 0.0156 kg/ha): 9.0
- Postemergence herbicidal rating GALAP ([3]; Rate 0.0313 kg/ha): 4.0
- Postemergence herbicidal rating GALAP ([3]; Rate 0.0625 kg/ha): 4.0
- Postemergence herbicidal rating GALAP ([3]; rate 0.0156 kg/ha): 2.0
- Postemergence herbicidal rating ORYSAT ([4]; Rate 0.0313 kg/ha): 2.5
- Postemergence herbicidal rating ORYSAT ([4]; Rate 0.0625 kg/ha): 3.0
- Postemergence herbicidal rating ORYSAT ([4]; rate 0.0156 kg/ha): 1.0
- Postemergence herbicidal rating ZEAMX ([5]; Rate 0.0313 kg/ha): 5.5
- Postemergence herbicidal rating ZEAMX ([5]; Rate 0.0625 kg/ha): 6.0
- Postemergence herbicidal rating ZEAMX ([5]; rate 0.0156 kg/ha): 5.0
- Preemergence herbicidal rating AMBEL ([6]; rate 0.0156 kg/ha): 0.0
- Preemergence herbicidal rating AMBEL ([6]; rate 0.0313 kg/ha): 0.0
- Preemergence herbicidal rating AMBEL ([6]; rate 0.0625 kg/ha): 9.0
- Preemergence herbicidal rating AMBEL ([6]; rate 0.1250 kg/ha): 9.0
- Preemergence herbicidal rating AMBEL ([6]; rate 0.2500 kg/ha): 9.0
- Preemergence herbicidal rating SETVI ([7]; rate 0.0156 kg/ha): 0.0
- Preemergence herbicidal rating SETVI ([7]; rate 0.0313 kg/ha): 4.0
- Preemergence herbicidal rating SETVI ([7]; rate 0.0625 kg/ha): 5.0
- Preemergence herbicidal rating SETVI ([7]; rate 0.2500 kg/ha): 5.0
- Preemergence herbicidal rating GLXMAW ([8]; rate 0.0156 kg/ha): 0.0
- Preemergence herbicidal rating GLXMAW ([8]; rate 0.0313 kg/ha): 0.0
- Preemergence herbicidal rating GLXMAW ([8]; rate 0.0625 kg/ha): 2.0
- Preemergence herbicidal rating GLXMAW ([8]; rate 0.1250 kg/ha): 2.0
- Preemergence herbicidal rating GLXMAW ([8]; rate 0.2500 kg/ha): 2.0
- Preemergence herbicidal rating ORYSAT ([9]; rate 0.0156 kg/ha): 0.0
- Preemergence herbicidal rating ORYSAT ([9]; rate 0.0313 kg/ha): 0.0
- Preemergence herbicidal rating ORYSAT ([9]; rate 0.0625 kg/ha): 0.0
- Preemergence herbicidal rating ORYSAT ([9]; rate 0.1250 kg/ha): 5.0
- Preemergence herbicidal rating ORYSAT ([9]; rate 0.2500 kg/ha): 5.0
- Herbicidal rating CYPSE ([10]; 0.0313 kg/ha): 2.0
- Herbicidal rating CYPSE ([10]; 0.0625 kg/ha): 3.0
- Herbicidal rating CYPSE ([10]; 0.2500 kg/ha): 4.0
- Herbicidal rating MOOVA ([11]; 0.0313 kg/ha): 9.0
- Herbicidal rating MOOVA ([11]; 0.0625 kg/ha): 9.0
- Herbicidal rating MOOVA ([11]; 0.1250 kg/ha): 9.0
- Herbicidal rating MOOVA ([11]; 0.2500 kg/ha): 9.0
- Herbicidal rating CYPIR ([12]; rate 0.0313 kg/ha): 0.0
- Herbicidal rating CYPIR ([12]; rate 0.0625 kg/ha): 0.0
- Herbicidal rating CYPIR ([12]; rate 0.1250 kg/ha): 2.0
- Herbicidal rating CYPIR ([12]; rate 0.2500 kg/ha): 7.0
- Herbicidal rating CYPSE ([13]; rate 0.0313 kg/ha): 2.0
- Herbicidal rating CYPSE ([13]; rate 0.0625 kg/ha): 3.0
- Herbicidal rating CYPSE ([13]; rate 0.2500 kg/ha): 4.0
- Herbicidal rating SAGPY ([14]; rate 0.0313 kg/ha): 2.0
- Herbicidal rating SAGPY ([14]; rate 0.0625 kg/ha): 4.0
- Herbicidal rating SAGPY ([14]; rate 0.1250 kg/ha): 6.0
- Herbicidal rating SAGPY ([14]; rate 0.2500 kg/ha): 7.0
